The values below come from patent US20040254136A1, “Antisense oligonucleotides and related methods for regulating cell death” (priority 2001, published 2004).

Data set [1] deals with wild-type sympathetic neurons. Put plainly: Survival of NGF-deprived (TFD) wild-type sympathetic neurons. Format: cell-based, mouse. The note with it: for protection from TFD-induced death (survival): anti-NGF, BAF 50 μM, DEVD-FMK 10 μM; for protection from NGF withdrawal (survival): anti-NGF plus antisense oligonucleotides, scored daily for three days. As to the method:
(§1) Sympathetic neuron cultures were prepared from 1-day-old wild-type and caspase-2−/− mouse pups (Bergeron et al. 1998). Cultures were grown in 24-well collagen-coated dishes for survival experiments and in 6-well collagen-coated dishes for RNA and protein extraction in RPMI 1640 medium plus 10% horse serum with mouse NGF (100 ng/ml). One day following plating, uridine and 5-fluorodeoxyuridine (10 μM each) were added to the cultures and left for three days to eliminate non-neuronal cells (less than 1% non-neuronal cells remain after 3 days). For survival experiments, on the sixth day following plating, NGF was removed by washing the cultures three times with RPMI 1640 medium plus 10% horse serum, followed by the addition of medium containing anti-mouse NGF (1:200, Sigma). Caspase inhibitors (Enzyme Systems Products) were added as indicated. Each culture was scored, as previously described (Troy et al., 1997), for numbers of living, phase-bright neurons present in the same field at various times. Three replicate cultures were assessed for each condition and data are normalized to numbers of neurons present in each culture at the time of NGF deprivation and reported as mean±SEM. For RNA and protein extraction on the sixth day following plating, RNA and protein were extracted using the Trizol reagent according to the manufacturer's protocol.

The test system of data set [2] is caspase-2-null sympathetic neurons. Put plainly: Survival of NGF-deprived (TFD) caspase-2-null sympathetic neurons. Format: cell-based, mouse. The note with it: caspase-2-null neurons; for protection from TFD-induced death (survival): anti-NGF, BAF 50 μM, DEVD-FMK 10 μM; for protection from NGF withdrawal (survival): anti-NGF plus antisense oligonucleotides, scored daily for three days. As to the method:
as §1

Data set [3] deals with MIAP3. Briefly: Western blotting of MIAP3 after V-AMIAP3 treatment of PC12 cells. Format: cell-based. The note with it: within 5 hours. The procedure: PC12 cells were treated with V-AMIAP3 (240 nM) for 6 hours. Cells lysates containing equal amounts of protein were subjected to Western blotting using the corresponding antisera. Actin staining confirmed equal loading. These are representative blots. Similar results were obtained in 2 independent experiments.
Postnatal day 1 mouse brains were harvested in sample buffer. For antisense down-regulation studies, PC12 cells, grown as previously described, were treated with various antisense constructs for 5 hours and harvested in sample buffer. Equal amounts of protein were separated by 15% PAGE, transferred to nitrocellulose and immunostained as described (Troy et al, 2000). Anti-caspase-9 (MBL) was used at 1:1000, anti-APAF-1 (StressGen) was used at 1:1000, anti-Smac was used at 1:2000, anti-XIAP (StressGen) was used at 1:1000, anti-RAIDD (StressGen) was used at 1:500 and anti-actin (Sigma) was used at 1:200. Visualization was with ECL, using goat-anti-rabbit peroxidase at 1:1000. The relative intensities of the protein bands were quantified using Scion Image 1.55 software (NIH).

Entries after “also recorded” stand apart in the source; their conditions may differ.

As for `COC(=O)CC(NC(=O)OC(C)(C)C)C(=O)CF` (stereo not drawn) [BAF], the “protection from TFD-induced death (survival)” value in data set [1] and in data set [2] was “protects; also recorded: rescued” throughout. Consider `COC(=O)CC[C@H](NC(=O)[C@H](CC(=O)OC)NC(=O)OCc1ccccc1)C(=O)N[C@H](C(=O)N[C@@H](CC(=O)OC)C(=O)CF)C(C)C` [DEVD-FMK], for which the “protection from TFD-induced death (survival)” value in data set [1] is reported as “provided protection only for caspase-2-null neurons; also recorded: only the caspase-2-null neurons were rescued”; in data set [2] it was “provided protection; also recorded: rescued”. For “CTGCCGGTCCGCCTCGTCCAT (chemistry not given here) [V-ACasp9, PENETRATIN1™-linked antisense oligonucleotide to caspase-9]”, the “protection from NGF withdrawal (survival)” value is recorded as “no protection” in data set [1] and “protected” in data set [2]. On to “GTTAAAAGTCATCTTCTCTGG (chemistry not given here) [V-AMIAP3, PENETRATIN1™-linked antisense oligonucleotide to MIAP3]”, for which the “down-regulation of MIAP3” value in data set [3] came to 70%.

For the compound “GTTGTTGTCCATGGTCACTTT (chemistry not given here) [V-ACasp3, PENETRATIN1™-linked antisense oligonucleotide to caspase-3]”, the “protection from NGF withdrawal (survival)” value in data set [1] was “no protection”; in data set [2] it was “protected”.
